# Where “and” joins values, the source holds several entries; their conditions need not be identical. Identical values can stand only once.
# Key:
# [1] = tested on: TNF-α, IL-6, MCP-1, F4/80 (Adgre1), CD11c (Itgax); experiment: qRT-PCR of inflammatory related genes and macrophage marker genes in eWAT; assay type: in vivo, mice; design: key to Tnf-α / IL-6 / Ccl2 / Adgre1 / Itgax: relative expression normalized to gapdh, 2^-ΔΔCt method
# Text: Total RNA was isolated from 3T3-L1 cells and adipose tissue homogenates using Trizol reagent (Invitrogen, Carlsbad, CA, USA). RNA concentration and purity were examined at 260/280 nm using a nanodrop spectrophotometer (NanoDrop One, Thermo Fisher Scientific, USA). The total RNA was reverse transcribed to cDNA using the EasyScript All-in-One First-Strand cDNA Synthesis SuperMix for qPCR kit (TransGen Biotech, Beijing, China). The quantitative reverse transcription polymerase chain reaction was performed using TransStart Top Green qPCR SuperMix (TransGen Biotech, Beijing, China) and an Applied Biosystems 7500 RealTime PCR System (Life Technologies, USA). Relative expression levels were normalized to gapdh expression and quantified using the 2^-ΔΔCt method. The primers were synthesized by Shanghai Sangon Biotech, and the detailed primer sequences were shown in Supplementary Table 5 in the supplementary materials.
# 3T3-L1 adipocytes = experiment: Immunofluorescence staining of UCP1 and MitoTracker; assay type: cell-based, Murine; design: key: mean fluorescence intensity measured in ImageJ; settings: Figure 7d; 10uM BBR; replicates
# Protocol: The 3T3-L1 adipocytes were washed with PBS for 3 times, fixed with 4% paraformaldehyde solution for 30 min, and then washed again for 3 times. […] The cells were then incubated overnight at 4 °C with the appropriate primary antibodies (1:100 dilution). The next day, the 3T3-L1 adipocytes were washed and incubated at room temperature with goat anti-rabbit secondary antibody or goat anti-mouse secondary antibody (1:1000 dilution) for 2 h and washed with PBS for 3 times. The nuclei were stained with DAPI. […] Fluorescence images were taken using a laser confocal microscope (SP8, Leica, Germany). At least four images per section were acquired for quantification, and the mean intensity were evaluated using ImageJ.
# cAMP, glycerol release = experiment: cAMP levels and glycerol release in TNF-α induced 3T3-L1 adipocytes (isoproterenol); assay type: cell-based, Murine
# Protocol: The epididymal adipose tissue was dissected, the fresh adipose tissue was weighed and rapidly rinsed with PBS. The adipose tissue was cut and incubated with isoproterenol (10 μM) for 2 h, and homogenized in a cold cleavage buffer to prepare the adipose tissue homogenate. Then the homogenate was centrifuged at 12,000 × g at 4 °C for 15 min, and the supernatant was collected. […] Then the cells were lysed in a petri dish, scraped off, and centrifuged at 12,000 × g at 4 °C for 15 min before the supernatant was collected. […] And concentrations were further standardized according to protein concentration.
# IKKε [2] = target: T1, IKKε (Mus musculus, UniProt Q9R0T8); experiment: IKKε kinase activity in TNF-α induced 3T3-L1 adipocytes; assay type: cell-based, Murine; design: endogenous in cells; host or cells: differentiated 3T3-L1 adipocytes; IKKε kinase activity: unit not given here; settings: for IKKε kinase activity: Figure 7h, replicates
# T1 sequence (Q9R0T8 1-717): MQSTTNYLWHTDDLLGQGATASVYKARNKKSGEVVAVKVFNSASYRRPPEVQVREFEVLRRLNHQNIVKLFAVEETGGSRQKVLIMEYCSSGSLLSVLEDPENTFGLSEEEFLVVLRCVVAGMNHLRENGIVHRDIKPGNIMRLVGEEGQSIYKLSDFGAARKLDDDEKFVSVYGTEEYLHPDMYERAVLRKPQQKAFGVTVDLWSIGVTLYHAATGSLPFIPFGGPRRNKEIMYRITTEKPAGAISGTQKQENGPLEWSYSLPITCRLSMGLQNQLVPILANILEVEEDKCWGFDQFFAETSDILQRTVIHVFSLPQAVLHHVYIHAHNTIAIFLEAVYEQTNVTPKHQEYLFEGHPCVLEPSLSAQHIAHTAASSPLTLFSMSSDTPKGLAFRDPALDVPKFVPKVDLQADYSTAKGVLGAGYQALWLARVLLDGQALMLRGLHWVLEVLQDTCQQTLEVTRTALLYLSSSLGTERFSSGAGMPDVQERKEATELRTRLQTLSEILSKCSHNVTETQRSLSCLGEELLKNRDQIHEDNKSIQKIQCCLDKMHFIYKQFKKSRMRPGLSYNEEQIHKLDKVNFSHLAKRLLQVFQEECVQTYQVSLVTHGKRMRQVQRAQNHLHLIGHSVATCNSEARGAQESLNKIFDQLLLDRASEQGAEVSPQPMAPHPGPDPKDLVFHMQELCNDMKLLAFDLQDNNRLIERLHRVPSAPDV
# IKKε [3] = target: T1, IKKε; experiment: IKKε activity assay in eWAT; assay type: in vivo, mice; design: The adipose tissue was ultrasound-crushed in PBS buffer solution (1:9 w/v) to prepare the tissue homogenate; from tissue; host or cells: epididymal white adipose tissue (eWAT) and brown adipose tissue (BAT) of C57BLKS WT and db/db mice; settings: for the expression of IKKε in eWAT of db/db mice: Figure 6b, individual values
# Protocol: The adipose tissue was ultrasound-crushed in PBS buffer solution (1:9 w/v) to prepare the tissue homogenate. The tissue homogenate was centrifuged at 5000 × g for 10 min, and the supernatant was taken for detection. Briefly, samples or standards were added to the microplates pre-coated with IKKε antibody or TBK1 antibody. Then horseradish peroxidase (HRP) labeled antibody was added and incubated at 37 °C for 60 min. After thorough washing, the 3,3′,5,5′-tetramethylbenzidine (TMB) substrate was used for color development, and the absorbance (OD value) was determined at 450 nm.
# [4] = Figure 5g, BBR 150mg/kg, replicates, first Veh value = 1
structure (smiles),measurement,setting,value
"COc1ccc2cc3[n+](cc2c1OC)CCc1cc2c(cc1-3)OCO2 [BBR, Berberine chloride dihydrate]",Adgre1,[1]; [4],0.3 and 0.2426 and 0.368
same,Ccl2,[1]; [4],0.8769 and 0.7967 and 0.7737
same,IL-6,[1]; [4],0.5766 and 0.5775 and 0.5396
same,Itgax,[1]; [4],0.806 and 0.855 and 0.8182
same,Tnf-α,[1]; [4],0.6975 and 0.7551 and 0.7391
same,"mRNA levels of TNF-α, IL-6, MCP-1, F4/80 (Adgre1) and CD11c (Itgax) in eWAT","[1]; db/db mice, 5 weeks of treatment, vs vehicle",reduced the mRNA levels
same,MitoTracker,3T3-L1 adipocytes,25.545 and 18.064 and 22.543 and 21.627 and 16.023 and 19.205 and 20.957 and 15.64 and 24.469 and 20.477 and 21.808 and 21.524
same,UCP1,3T3-L1 adipocytes,28.534 and 25.717 and 23.768 and 26.01 and 16.988 and 23.573 and 17.055 and 20.669 and 24.128 and 20.8 and 21.801 and 21.746
"CC(C)Cc1ccc(C(C)C(=O)[O-])cc1.COc1ccc2cc3[n+](cc2c1OC)CCc1cc2c(cc1-3)OCO2.O.O.O.O [BJ, berberine-ibuprofen]",Glycerol release in differentiated 3T3-L1 adipocytes induced by TNF-α,"cAMP, glycerol release; BJ",92.8546 µmol/L and 97.0733 µmol/L and 93.6983 µmol/L
same,cAMP levels in differentiated 3T3-L1 adipocytes induced by TNF-α,"cAMP, glycerol release; BJ",0.2237 pmol/mg protein and 0.2235 pmol/mg protein and 0.2307 pmol/mg protein
same,Glycerol release in differentiated 3T3-L1 adipocytes induced by TNF-α,"cAMP, glycerol release; BJ+TNF-α(50ng/ml)",63.3237 µmol/L and 59.9487 µmol/L and 58.2612 µmol/L
same,cAMP levels in differentiated 3T3-L1 adipocytes induced by TNF-α,"cAMP, glycerol release; BJ+TNF-α(50ng/ml)",0.1653 pmol/mg protein and 0.1544 pmol/mg protein and 0.1605 pmol/mg protein
same,Glycerol release in differentiated 3T3-L1 adipocytes induced by TNF-α,"cAMP, glycerol release; ISO+BJ",186.51 µmol/L and 191.572 µmol/L and 183.135 µmol/L
same,cAMP levels in differentiated 3T3-L1 adipocytes induced by TNF-α,"cAMP, glycerol release; ISO+BJ",0.3839 pmol/mg protein and 0.37 pmol/mg protein and 0.3787 pmol/mg protein
same,Glycerol release in differentiated 3T3-L1 adipocytes induced by TNF-α,"cAMP, glycerol release; ISO+BJ+TNF-α(50ng/ml)",167.104 µmol/L and 166.26 µmol/L
same,cAMP levels in differentiated 3T3-L1 adipocytes induced by TNF-α,"cAMP, glycerol release; ISO+BJ+TNF-α(50ng/ml)",0.248 pmol/mg protein and 0.2422 pmol/mg protein and 0.2461 pmol/mg protein
same,Glycerol release and cAMP levels,"cAMP, glycerol release; TNF-α induced 3T3-L1 adipocytes, BJ pretreatment, isoproterenol stimulation","promoted glycerol release, increased cAMP levels"
same,IKKε kinase activity,IKKε [2]; TNF-α(50ng/ml)+3μM BJ,47.3662 and 40.5834 and 38.8273 and 37.402 and 43.0522 and 46.31
same,IKKε kinase activity,IKKε [2]; TNF-α(50ng/ml)+10μM BJ,22.5765 and 26.127 and 25.2998 and 23.4546 and 23.7218 and 26.8142
same,IKKε expression level / kinase activity,"IKKε [2]; TNF-α induced 3T3-L1 adipocytes, BJ treatment for 24 h",markedly decreased
same,the expression of IKKε in eWAT of db/db mice,IKKε [3]; db/db+BJ 75mg/kg,0.731 U/g and 0.653 U/g and 0.634 U/g and 0.668 U/g and 0.673 U/g and 0.708 U/g
same,the expression of IKKε in eWAT of db/db mice,IKKε [3]; db/db+BJ 150mg/kg,0.443 U/g and 0.517 U/g and 0.416 U/g and 0.438 U/g and 0.466 U/g and 0.49 U/g
same,IKKε kinase activity in eWAT,"IKKε [3]; db/db mice, both doses of BJ (75 and 150 mg/kg)",significantly reduced
